Data taken from patent publication US11827616B2, “Heterocyclic compounds as pesticides” (Discovery Purchaser Corporation, priority 2018, dated 2023).
Where two headings read alike, the source gives them in different places.

How the values were obtained:
Format in all cases: in vivo
Tetranychus urticae = Tetranychus urticae spray test, OP-resistant; conditions: application rate 500 g/ha; after 6 days
Method: Tetranychus urticae—Spray Test, OP-Resistant
Solvent: 78.0 Parts by Weight of Acetone • • 1.5 parts by weight of dimethylformamide
(§1) Emulsifier: alkylaryl polyglycol ether
(§2) To produce a suitable active compound formulation, 1 part by weight of active compound is dissolved with the specified parts by weight of solvent and made up to the desired concentration with water containing an emulsifier concentration of 1000 ppm. To produce further test concentrations, the formulation is diluted with emulsifier-containing water.
Discs of bean leaves (Phaseolus vulgaris) infested with all stages of the greenhouse red spider mite (Tetranychus urticae) are sprayed with an active compound formulation of the desired concentration.
After 6 days, the efficacy in % is determined. 100% means that all the spider mites have been killed; 0% means that no spider mites have been killed.

Lucilia cuprina = Lucilia cuprina test; conditions: application rate 100 ppm; L1 larvae; after 2 days
Method: (§3) Solvent: dimethyl sulfoxide
To produce a suitable active compound formulation, 10 mg of active compound are mixed with 0.5 ml of dimethyl sulfoxide, and the concentrate is diluted with water to the desired concentration.
About 20 L1 larvae of the Australian sheep blowfly (Lucilia cuprina) are transferred into a test vessel containing minced horsemeat and the active compound formulation of the desired concentration.
After 2 days, the kill in % is determined. 100% means that all the larvae have been killed; 0% means that no larvae have been killed.

[1] = test system: Anopheles gambiae strain RSPH (homozygot kdr); assay: Anopheles test (ANPHGB surface treatment); conditions: read-out: efficacy (mortality in %)
Method: Anopheles Test (ANPHGB Surface Treatment)
(§4) Solvent: acetone+2000 ppm rapeseed oil methyl ester (RME)
(§5) To produce an appropriate active compound formulation, the active compound is dissolved in the solvent (2 mg/ml). The active compound formulation is pipetted onto a glazed tile and, after it has dried off, adult mosquitoes of the species Anopheles gambiae strain RSPH (homozygot kdr) are placed onto the treated tile. The exposure time is 30 minutes.
(§6) 24 hours after contact with the treated surface, mortality in % is determined. 100% means that all mosquitoes have been killed; 0% means that none of the mosquitoes have been killed.

Rhipicephalus sanguineus = Rhipicephalus sanguineus in vitro contact test with adult brown dog ticks; conditions: application rate 5 μg/cm^2 (=500 g/ha); after 48 h
Method: Rhipicephalus sanguineus—In Vitro Contact Tests with Adult Brown Dog Ticks
(§7) For the coating of the test tubes, 9 mg of active compound are first dissolved in 1 ml of acetone p.a. and then diluted to the desired concentration with acetone p.a. 250 μl of the solution are distributed homogeneously on the inner walls and the base of a 25 ml glass tube by turning and rocking on an orbital shaker (rocking rotation at 30 rpm for 2 h). With 900 ppm of active compound solution and internal surface area 44.7 cm^2, given homogeneous distribution, an area-based dose of 5 μg/cm^2 is achieved.
After the solvent has evaporated off, the tubes are populated with 5-10 adult dog ticks (Rhipicephalus sanguineus), sealed with a perforated plastic lid and incubated in a horizontal position in the dark at room temperature and ambient humidity. After 48 h, efficacy is determined. To this end, the ticks are knocked to the base of the tube and incubated on a hotplate at 45-50° C. for not more than 5 min. Ticks which remain motionless on the base or move in such an uncoordinated manner that they are unable to deliberately avoid the heat by climbing upwards are considered to be dead or moribund.
An efficacy of 100% means that all the ticks were dead or moribund. 0% efficacy means that none of the ticks were harmed.

Ctenocephalides felis [2] = assay: Ctenocephalides felis oral test; conditions: application rate 100 ppm in citrated cattle blood; after 2 days
Method: Ctenocephalides felis—Oral Test
as §3
To produce a suitable active compound formulation, 10 mg of active compound are mixed with 0.5 ml of dimethyl sulfoxide. Dilution with citrated cattle blood gives the desired concentration.
About 20 unfed adult cat fleas (Ctenocephalides felis) are placed into a chamber which is closed at the top and bottom with gauze. A metal cylinder whose bottom end is closed with parafilm is placed onto the chamber. The cylinder contains the blood/active compound formulation, which can be imbibed by the fleas through the parafilm membrane.
After 2 days, the kill in % is determined. 100% means that all of the fleas have been killed; 0% means that none of the fleas have been killed.

[3] = test system: Anopheles funestus strain FUMOZ-R; assay: Anopheles test (ANPHFU surface treatment); conditions: read-out: efficacy (mortality in %)
Method: Anopheles Test (ANPHFU Surface Treatment)
as §4
as §5, with “funestus” for “gambiae”, “FUMOZ-R (Hunt et al., Med Vet Entomol. 2005 Sep.; 19 (3):271-5)” for “RSPH (homozygot kdr)”
as §6

Ctenocephalides felis [4] = assay: Ctenocephalides felis in vitro contact test with adult cat fleas; conditions: application rate 5 μg/cm^2 (=500 g/ha); after 48 h
Method: Ctenocephalides felis—In Vitro Contact Tests with Adult Cat Fleas
as §7
After the solvent has evaporated off, the tubes are populated with 5-10 adult cat fleas (Ctenocephalides felis), sealed with a perforated plastic lid and incubated in a horizontal position at room temperature and ambient humidity. After 48 h, efficacy is determined. To this end, the tubes are stood upright and the fleas are knocked to the base of the tube. Fleas which remain motionless at the base or move in an uncoordinated manner are considered to be dead or moribund.
100% efficacy means that all the fleas were dead or moribund. 0% efficacy means that no fleas were harmed.

Boophilus microplus = Boophilus microplus injection test; conditions: for pest or weed control at 0.02 mg: Rhipicephalus microplus, 168 h
Method: Boophilus microplus—Injection Test
as §3
To produce a suitable active compound formulation, 10 mg of active compound are mixed with 0.5 ml of solvent and the concentrate is diluted to the desired concentration with solvent.
1 μl of the active compound solution is injected into the abdomen of 5 engorged adult female cattle ticks (Boophilus microplus). The animals are transferred into dishes and kept in a climate-controlled room.
(§8) Efficacy is assessed after 7 days by laying of fertile eggs. Eggs which are not visibly fertile are stored in a climate-controlled cabinet until the larvae hatch after about 42 days. An efficacy of 100% means that none of the ticks has laid any fertile eggs; 0% means that all the eggs are fertile.

[5] = test system: Aedes aegypti strain MONHEIM; assay: Aedes test (AEDSAE surface treatment); conditions: read-out: efficacy (mortality in %)
Method: Aedes Test (AEDSAE Surface Treatment)
as §4
as §5, with “Aedes aegypti” for “Anopheles gambiae”, “MONHEIM” for “RSPH (homozygot kdr)”, “minutes. 24 hours after contact with the treated surface, mortality in % is determined. 100% means that all mosquitoes have been killed; 0% means that none of the mosquitoes have been killed.” for “minutes.”

Spodoptera frugiperda = Spodoptera frugiperda spray test; conditions: for pest or weed control at 500 g/ha: Spodoptera frugiperda, 168 h, read-out: efficacy
Method: Spodoptera frugiperda—Spray Test
(§9) Solvent: 78.0 parts by weight of acetone • • 1.5 parts by weight of dimethylformamide
as §1, §2
Leaf discs of maize (Zea mays) are sprayed with an active compound formulation of the desired concentration and, after drying, populated with caterpillars of the fall armyworm (Spodoptera frugiperda).
After 7 days, the efficacy in % is determined. 100% means that all the caterpillars have been killed; 0% means that no caterpillar has been killed.

Phaedon cochleariae = Phaedon cochleariae spray test; conditions: for pest or weed control at 500 g/ha: Phaedon cochleariae, 168 h, read-out: efficacy
Method: Phaedon cochleariae—Spray Test
as §9, §1, §2
Discs of Chinese cabbage leaves (Brassica pekinensis) are sprayed with an active compound formulation of the desired concentration and, after drying, populated with larvae of the mustard beetle (Phaedon cochleariae).
After 7 days, the efficacy in % is determined. 100% means that all the beetle larvae have been killed; 0% means that no beetle larvae have been killed.

[6] = test system: cattle ticks (Boophilus microplus) Parkhurst strain, SP-resistant; assay: Boophilus microplus dip test; conditions: application rate 100 ppm, after 7 days
Method: Boophilus microplus—Dip Test
Test animals: cattle ticks (Boophilus microplus) Parkhurst strain, SP-resistant
as §3
10 mg of active compound are dissolved in 0.5 ml of dimethyl sulfoxide. To produce a suitable formulation, the active compound solution is diluted with water to the concentration desired in each case.
This active compound formulation is pipetted into tubes. 8-10 engorged adult female cattle ticks (Boophilus microplus) are transferred into a further tube with holes. The tube is immersed into the active compound formulation, and all the ticks are completely wetted. After the liquid has run out, the ticks are transferred on filter disks into plastic dishes and stored in a climate-controlled room.
as §8

[7] = read-out: efficacy (laying of fertile eggs), application rate 20 μg/animal, after 7 days
[8] = application rate 20 μg/animal, after 7 days
[9] = application rate 500 g/ha, after 7 days
[10] = application rate 20 mg/m^2, exposure 30 minutes, 24 hours after contact

For `CON(C)CCOc1ccc(COc2ccc(Cl)c3ccccc23)cn1` [Example 2, 2-[(5-{[(4-chloro-1-naphthyl)oxy]methyl}pyridin-2-yl)oxy]-N-methoxy-N-methylethanamine], the efficacy (Tetranychus urticae) was 90%, the “efficacy (kill in %)” value (Lucilia cuprina) was 100% and the mortality at 20 mg/m2 [1] was 80 to 100%. The mortality at 100 mg/m2 [1] was 80 to 100%, the “efficacy (ticks dead or moribund)” value (Rhipicephalus sanguineus) was 100% and the “efficacy (kill in %)” value (Ctenocephalides felis [2]) was 80%. The mortality at 20 mg/m2 [3] was 80 to 100%, the mortality at 100 mg/m2 [3] was 80 to 100% and the “efficacy (fleas dead or moribund)” value (Ctenocephalides felis [4]) was 100%. It also gave a pest or weed control at 0.02 mg (Boophilus microplus; [7]) of 100%, a mortality at 20 mg/m2 [5] of 80 to 100% and a mortality at 100 mg/m2 [5] of 80 to 100%. It also gave a pest or weed control at 500 g/ha (Spodoptera frugiperda) of 100% and a pest or weed control at 500 g/ha (Phaedon cochleariae) of 100%.

For `CON(C)CCOc1ccc(COc2ccc(Cl)c3ccccc23)c(F)n1` [Example 3, 2-[(5-{[(4-chloro-1-naphthyl)oxy]methyl}-6-fluoropyridin-2-yl)oxy]-N-methoxy-N-methylethanamine], the mortality at 20 mg/m2 [1] was 80 to 100%, the mortality at 100 mg/m2 [1] was 80 to 100% and the mortality at 20 mg/m2 [3] was 80 to 100%. For the same molecule, the mortality at 100 mg/m2 [3] was 80 to 100% and the mortality at 100 mg/m2 [5] was 80 to 100%.

`N#CCN1CCC(Oc2ccc(COc3ccc(Cl)c4ccccc34)cn2)C1` (stereo not drawn) [Example 5, {3-[(5-{[(4-chloro-1-naphthyl)oxy]methyl}pyridin-2-yl)oxy]pyrrolidin-1-yl}acetonitrile] was tested, and the “efficacy (kill in %)” value (Lucilia cuprina) was 100%, the mortality at 20 mg/m2 [1] was 80 to 100% and the mortality at 100 mg/m2 [1] was 80 to 100%. For the same molecule, the mortality at 20 mg/m2 [3] was 80 to 100%, the pest or weed control at 0.02 mg (Boophilus microplus; [7]) was 100% and the pest or weed control at 500 g/ha (Spodoptera frugiperda) was 83%. For the same molecule, the pest or weed control at 500 g/ha (Phaedon cochleariae) was 100%.

With `CON(C)CCOc1ccc(COc2cccc3c(Cl)c(Cl)ccc23)nc1` [Example 16] the “efficacy (kill in %)” value (Lucilia cuprina) was 100%, the “efficacy (ticks dead or moribund)” value (Rhipicephalus sanguineus) was 100% and the “efficacy (fleas dead or moribund)” value (Ctenocephalides felis [4]) was 100%. The “efficacy (laying of fertile eggs)” value (Boophilus microplus; [8]) was 100%, the “efficacy (laying of fertile eggs)” value [6] was 95% and the efficacy (Spodoptera frugiperda; [9]) was 83%. It also gave an efficacy (Phaedon cochleariae; [9]) of 83%.

`CON(C)CCOc1cnc(COc2ccc3oc4ccccc4c3c2)c(C)c1` [Example 30, 2-({6-[(dibenzo[b,d]furan-2-yloxy)methyl]-5-methylpyridin-3-yl}oxy)-N-methoxy-N-methylethanamine] was tested, and the efficacy (Tetranychus urticae) was 100%, the mortality at 20 mg/m2 [1] was 80 to 100% and the mortality at 20 mg/m2 [3] was 80 to 100%. It also gave a pest or weed control at 0.02 mg (Boophilus microplus; [7]) of 100%, a mortality at 20 mg/m2 [5] of 80 to 100% and a pest or weed control at 500 g/ha (Phaedon cochleariae) of 83%.

For `COc1cc(OCc2ncc(OCCN(C)OC)cc2F)ccc1Cl` [Example 58], the efficacy (Tetranychus urticae) was 100%, the “efficacy (laying of fertile eggs)” value (Boophilus microplus; [8]) was 100% and the “efficacy (laying of fertile eggs)” value [6] was 95%. For the same molecule, the efficacy (Spodoptera frugiperda; [9]) was 100% and the efficacy (Phaedon cochleariae; [9]) was 100%.

With `CON(C)CCOc1cnc(COc2ccc(F)c(-c3ccccc3)c2)c(F)c1` [Example 71, 2-[(5-fluoro-6-{[(6-fluorobiphenyl-3-yl)oxy]methyl}pyridin-3-yl)oxy]-N-methoxy-N-methylethanamine] the “efficacy (kill in %)” value (Lucilia cuprina) was 100%, the mortality at 20 mg/m2 [1, 10] was 80 to 100% and the “efficacy (ticks dead or moribund)” value (Rhipicephalus sanguineus) was 100%. The mortality at 20 mg/m2 [3, 10] was 80 to 100%, the “efficacy (fleas dead or moribund)” value (Ctenocephalides felis [4]) was 100% and the pest or weed control at 0.02 mg (Boophilus microplus; application rate 20 μg/animal, after 7 days, read-out: efficacy (laying of fertile eggs)) was 100%. The mortality at 20 mg/m2 [5, 10] was 80 to 100%, the pest or weed control at 500 g/ha (Spodoptera frugiperda; [9]) was 100% and the pest or weed control at 500 g/ha (Phaedon cochleariae; [9]) was 83%.

With `COc1cc(OCc2ncc(OCCN(C)OC)cc2F)ccc1Br` [Example 86] the “efficacy (ticks dead or moribund)” value (Rhipicephalus sanguineus) was 100%, the “efficacy (fleas dead or moribund)” value (Ctenocephalides felis [4]) was 100% and the “efficacy (laying of fertile eggs)” value (Boophilus microplus; [8]) was 100%. For the same molecule, the “efficacy (laying of fertile eggs)” value [6] was 100% and the efficacy (Spodoptera frugiperda; [9]) was 83%.

For `COc1cc(OCCN(C)OC)cnc1COc1ccc2oc3ccccc3c2c1` [Example 90, 2-({6-[(dibenzo[b,d]furan-2-yloxy)methyl]-5-methoxypyridin-3-yl}oxy)-N-methoxy-N-methylethanamine], the “efficacy (kill in %)” value (Lucilia cuprina) was 80%, the mortality at 100 mg/m2 [1] was 80 to 100% and the mortality at 100 mg/m2 [3] was 80 to 100%. For the same molecule, the pest or weed control at 0.02 mg (Boophilus microplus; [7]) was 100%, the mortality at 20 mg/m2 [5] was 80 to 100% and the mortality at 100 mg/m2 [5] was 80 to 100%. The pest or weed control at 500 g/ha (Spodoptera frugiperda) was 83%.

`CCOc1nc(COc2cccc3c(Cl)c(Cl)ccc23)ccc1OCCN(C)OC` [Example 97, 2-[(6-{[(5,6-dichloro-1-naphthyl)oxy]methyl}-2-ethoxypyridin-3-yl)oxy]-N-methoxy-N-methylethanamine] showed a mortality at 20 mg/m2 [5, 10] of 80 to 100%.
